Reference: patent US20240285512A1, “ORAL CARE COMPOSITIONS” (Firmenich SA, priority 2021, published 2024)
Where two headings read alike, the source gives them in different places.

Experiments:
Format in all cases: cell-based
[1] = tested on: A. oris, A. naeslundii, S. mitis and S. oralis; test: Bacteria adhesion assay, defined inocula (MBEC pegs, saliva pellicle, CFU plating); conditions: for inhibition at 0.01 % / inhibition at 10000 µM / inhibition at 0.1 %: relative CFU with base designated as 100, read-out: Adhesion Δ (difference in relative biofilm abundance between control base and treatment); for Adhesion Δ (difference in relative biofilm abundance between control base and treatment): relative CFU with base designated as 100
Procedure: (§1) A total of 12 bacterial strains were selected based on scientific literature. The strains were grown in media recommended by strain suppliers. Broth cultures were adjusted to log 7 CFU/mL with growth media containing 20% of glycerol. For C. matruchotii growth medium with glycerol was used to wash off the colonies culture plates, the cell suspension was then homogenized by vortexing with glass beads. The aerobic and anaerobic strains were mixed and aliquoted separately. The inocula were stored at −80° C. until use.
(§2) Saliva and oral inocula preparation. Saliva and oral microflora samples were collected from healthy volunteers by passive drooling using a method described previously. • (a) Bacteria Adhesion assay. Pegs of 96-well MBEC plate (Innovotech, Canada) were submerged in saliva for pellicle formation. Overnight culture of A. oris, A. naeslundii, S. mitis and S. oralis were normalized to OD=0.1 using 0.85% NaCl and mixed in equal proportions. The plates were treated with samples for 2 min and incubated with the culture mixture for 30 min at 37° C. and 5% CO2. The pegs on 96-well plates were then washed 3 times before harvest. • (b) Biofilm formation assay. Saliva-coated 96-well MBEC plates were incubated with inocula anaerobically overnight. The next day, the inoculum was replaced with modified BHI broth (BHI supplemented with 1 g/L mucin, 0.5 mg/L Vitamin K and 10 mg/L hemin). The devices were treated for 2 min twice to mimic the application of dental care products, after which the treatment solution was replaced with fresh modified BHI broth and incubation of the devices was continued. The biofilms were harvested after two days. • (c) Biofilm disruption assay. The inoculation and incubation was done in the same manner as described in the formation assay except that the incubation time was extended to 7 days, after which the mature biofilm was subjected to treatment twice a day as in the formation assay for 3 days before harvest.
(§3) Biofilm harvest. To harvest the attached cells, the peg of the MBEC device was immersed in 200 μL of saline solution per well. The plates were sonicated in an ultrasonic bath to obtain cell suspension. For the adhesion assay, the suspension was serially diluted and plated on Tryptic Soy Agar using Microlab STAR (Hamilton). For the formation and disruption assays, the suspension was used for SYTO 9 staining using LIVE/DEAD® BacLight Bacterial Viability Kits L7012 (Thermo Fisher Scientific) following manufacturer instructions.
(§4) The inventors used the assays described above to screen more ingredients for activity in a model mouth wash (Table 5).
(§5) The compounds and compositions for testing activities in Table 6 were dissolved in DMSO. The rest of the ingredients of mouth rinse in Table 5 were mixed to make a master mix in water and then aliquoted. The DMSO solution was then added to the master mix and homogenized.

[2] = tested on: biofilm of defined inocula (12 bacterial strains of Table 1); test: Biofilm formation assay, defined inocula (MBEC plates, SYTO 9 fluorescence); conditions: for inhibition at 0.01 % / inhibition at 10000 µM / inhibition at 0.1 %: read-out: Formation Δ (difference in relative biofilm abundance between control base and treatment); for inhibition at 0.1 %: dosage 0.1%
Procedure: as §1, §2, §3, §4, §5

[3] = tested on: mature biofilm of defined inocula (12 bacterial strains of Table 1); test: Biofilm disruption assay, defined inocula (7-day mature biofilm, SYTO 9 fluorescence); conditions: for inhibition at 0.01 % / inhibition at 10000 µM / inhibition at 0.1 %: read-out: Disruption Δ (difference in relative biofilm abundance between control base and treatment); for inhibition at 0.1 %: dosage 0.1%
Procedure: as §1, §2, §3, §4, §5

[4] = dosage 0.01%, defined inocula, relative fluorescence intensity with base designated as 100
[5] = dosage 10 mM in model mouth rinse with DMSO
[6] = dosage 10 mM in model mouth rinse with DMSO, defined inocula, relative fluorescence intensity with base designated as 100
[7] = defined inocula, relative fluorescence intensity with base designated as 100

Which inhibition at 0.01 % ([1]; dosage 0.01%) does the source give for `CCC=CCCOC(C)=O` [3-HEXENYL ACETATE, 3-hexenyl acetate] here?
Its inhibition at 0.01 % is 32.7%.

What about the inhibition at 0.01 % [2, 4] of the same compound?
The inhibition at 0.01 % was 78.1%.

What about the inhibition at 0.01 % [3, 4] of the same compound?
Its inhibition at 0.01 % is 64.7%.

With `CC=Cc1ccc(OC)cc1` [Anethole] as the compound, how does the inhibition at 10000 µM [1, 5] read?
Its inhibition at 10000 µM is 17.4%.

And the inhibition at 10000 µM [2, 6]?
The inhibition at 10000 µM was 53.4%.

And the inhibition at 10000 µM [3, 6]?
Its inhibition at 10000 µM is 77.4%.

`CC(=O)/C=C/C1=C(C)CCCC1(C)C` [BETA IONONE, (3E)-4-(2,6,6-Trimethylcyclohex-1-en-1-yl)but-3-en-2-one] was tested. Which inhibition at 0.01 % ([1]; dosage 0.01%) did it give?
Its inhibition at 0.01 % is 19.4%.

What about the inhibition at 0.01 % [2, 4] of the same compound?
The inhibition at 0.01 % was 80.8%.

And the inhibition at 0.01 % [3, 4]?
Its inhibition at 0.01 % is 61.8%.

How did the inhibition at 0.1 % ([1]; dosage 0.1%) turn out when `O=CC=Cc1ccccc1` [Cinnamaldehyde] was run?
Its inhibition at 0.1 % is -9.1%.

What about the inhibition at 0.1 % [2, 7] of the same compound?
Its inhibition at 0.1 % is 83.3%.

And the inhibition at 0.1 % [3, 7]?
Its inhibition at 0.1 % is 48.2%.

How did the inhibition at 10000 µM [1, 5] turn out when `CC(C)=CCCC(C)CCO` (centres unmarked) [Citronellol] was run?
Its inhibition at 10000 µM is 91.7%.

What about the inhibition at 10000 µM [2, 6] of the same compound?
The inhibition at 10000 µM was 58.1%.

What about the inhibition at 10000 µM [3, 6] of the same compound?
The inhibition at 10000 µM was 67%.

With `CCCCCCCCCC(=O)O` [Decanoic acid] as the compound, how does the inhibition at 10000 µM [2, 6] read?
Its inhibition at 10000 µM is 93.3%.

What about the inhibition at 10000 µM [3, 6] of the same compound?
Its inhibition at 10000 µM is 89.8%.

For `CC(C)=CCC/C(C)=C/CO` [GERANIOL, Geraniol], which inhibition at 0.01 % ([1]; dosage 0.01%) is on record?
The inhibition at 0.01 % was 32.1%.

What about the inhibition at 0.01 % [2, 4] of the same compound?
Its inhibition at 0.01 % is 84.7%.

What about the inhibition at 0.01 % [3, 4] of the same compound?
The inhibition at 0.01 % was 61.7%.

How did the inhibition at 0.1 % ([1]; dosage 0.1%) turn out when `CC(C)CCO` [ISOAMYL ALCOHOL, Isoamyl alcohol] was run?
The inhibition at 0.1 % was 63.7%.

And the inhibition at 0.1 % [2, 7]?
The inhibition at 0.1 % was 82.3%.

And the inhibition at 0.1 % [3, 7]?
The inhibition at 0.1 % was 57.4%.

How did the “Adhesion Δ (difference in relative biofilm abundance between control base and treatment)” value ([1]; dosage 0.01%) turn out when `CCCCCC1C(=O)CCC1CC(=O)OC` (centres unmarked) [Methyl (2-pentyl-3-oxocyclopentyl) acetate] was run?
The value was 37.1.

And the “Formation Δ (difference in relative biofilm abundance between control base and treatment)” value [2, 4]?
Its value is 86.3.

What about the “Disruption Δ (difference in relative biofilm abundance between control base and treatment)” value [3, 4] of the same compound?
The value was 63.2.

For `CCCCCCCCCCCCCC(=O)O` [Myristic Acid, Myristic acid], which inhibition at 10000 µM [1, 5] is on record?
The inhibition at 10000 µM was 33.3%.

What about the inhibition at 10000 µM [2, 6] of the same compound?
The inhibition at 10000 µM was 64.9%.

What about the inhibition at 10000 µM [3, 6] of the same compound?
Its inhibition at 10000 µM is 87.9%.

How did the inhibition at 10000 µM [1, 5] turn out when `C=C(C)[C@@H]1CCC2=CC(=O)C[C@@H](C)[C@]2(C)C1` [Nootkatone] was run?
Its inhibition at 10000 µM is 86.4%.

And the inhibition at 10000 µM [2, 6]?
The inhibition at 10000 µM was 20.3%.

And the inhibition at 10000 µM [3, 6]?
The inhibition at 10000 µM was 63.1%.

With `CCCCC1CCC(=O)O1` (centres unmarked) [OCTALACTONE, Gamma octalactone] as the compound, how does the “Adhesion Δ (difference in relative biofilm abundance between control base and treatment)” value ([1]; dosage 0.01%) read?
Its value is 63.5.

What about the “Formation Δ (difference in relative biofilm abundance between control base and treatment)” value [2, 4] of the same compound?
The value was 89.1.

What about the “Disruption Δ (difference in relative biofilm abundance between control base and treatment)” value [3, 4] of the same compound?
Its value is 74.1.

Which results are given for `Cc1ccc(C(C)C)c(O)c1` [THYMOL, Thymol]?
inhibition at 0.1 % ([1]; dosage 0.1%): 5.7%; inhibition at 0.1 % [2, 7]: 86.7%; inhibition at 0.1 % [3, 7]: 72%

Which “Adhesion Δ (difference in relative biofilm abundance between control base and treatment)” value [1, 5] does the source give for `CC/C=C\CCOC(=O)CCCCC` [cis-3-hexenylhexanoate] here?
Its value is 9.1.

What about the “Formation Δ (difference in relative biofilm abundance between control base and treatment)” value [2, 6] of the same compound?
The value was 58.1.

What about the “Disruption Δ (difference in relative biofilm abundance between control base and treatment)” value [3, 6] of the same compound?
Its value is 75.3.

What does the source list for `CCCCCCCCCCC(=O)O` [undecanoic acid, Undecanoic acid]?
inhibition at 10000 µM [1, 5]: 98.8%; inhibition at 10000 µM [2, 6]: 87.5%; inhibition at 10000 µM [3, 6]: 89.1%

Which “Adhesion Δ (difference in relative biofilm abundance between control base and treatment)” value ([1]; dosage 0.1%) does the source give for Butanol here?
The value was 56.8.

What about the “Formation Δ (difference in relative biofilm abundance between control base and treatment)” value [2] of the same compound?
Its value is 83.5.

What about the “Disruption Δ (difference in relative biofilm abundance between control base and treatment)” value [3] of the same compound?
Its value is 59.5.
